Test results: US11633394B2, “Substituted alkynylene compounds as anticancer agents” (Aurigene Oncology Limited, priority 2018, dated 2023)

Key:
Type in all cases: cell-based
[1] = system: NCI-H2122 cells; assay: Anti proliferative activity in NCI-H2122 cells by XTT assay; conditions: Homo sapiens, NCI-H2122, 192 h, H2122 cell line, at 30 μM, 8 days
Protocol: Example 79: Determination of Anti Proliferative Activity in NCI-H2122 Cells by XTT Assay
NCI-H2122 cells (ATCC CRL-5985) were plated at 1000 cells/well in 96 well flat clear bottom plates (Corning, Cat. No 3596) using complete RPMI-1640 media. After 24 hours, compounds of present invention were added to cells from 10 mM stocks made in DMSO (Sigma Cat no. D2650). Each concentration of compound was tested in triplicate with DMSO concentration not exceeding a final percentage of 0.3 in the cells. Complete RPMI-1640 media changed at Day 3 (72 hour) and Day 6 (144 hour) along with compounds of current invention. After 8 days (192 hour) of incubation assay terminated using 50 μl of XTT reagent (Invitrogen, Cat. no X6493). XTT reagent was made by dissolving 1 mg/mi XTT in serum free media with addition of 25 μM Phenazine methosulfate (sigma Cat. no P9625). Absorbance readings were taken in spectrophotometer at 465 nm. The data was analysed using graph pad prism software. Positive control (100% survival)=Cells in complete media with 0.3% DMSO; Negative control/blank (0% survival)=Media alone containing 0.3% DMSO.
(§1) The compounds of the present invention were screened in the above mentioned assay and the results are tabulated below.

[2] = system: OCI-Ly10 cells; assay: Anti proliferative activity in OCI-Ly10 cells (CTG luminescence); conditions: Homo sapiens, OCI-Ly10, 72 h
Protocol: Example 80: Determination of Anti Proliferative Activity in OCI-Ly10 Cells
OCI-Ly10 cells (UHN Canada) were plated at 7500 cells/well in 96 well flat bottom plates (Corning, Cat. No CLS3904) using complete Iscove's Modified Dulbecco's Medium (IMDM. After 6 hours, compounds from the present invention were added to the cells from 10 mM stocks made in DMSO (Sigma, Cat. No D2650). Each concentration of compound was tested in triplicates with DMSO concentration not exceeding a final percentage of 0.1 in the cells. After 72 hours of incubation in CO2 incubator, CTG (Promega, Cat. No G7572) was added to the wells and Luminescence readings were taken in the plate reader. Percent inhibition in proliferation was calculated using Microsoft Excel software. Positive control (100% survival)=Cells in complete media with 0.1% DMSO; Negative control/blank (0% survival)=Media alone containing 0.1% DMSO.

[3] = system: NCI-H1792 cells; assay: Anti proliferative activity in NCI-H1792 cells by XTT assay; conditions: Homo sapiens, NCI-H1792, 72 h, H1792 cell line
Protocol: Example 78: Determination of Anti Proliferative Activity in NCI-H1792 Cells by XTT Assay
NCI-H1792 cells (ATCC CRL-5895) were plated at 2000 cells/well in 96 well flat clear bottom plates (Corning, Cat. No 3596) using complete RPMI media. After 24 hours, compounds of present invention were added to cells from 20 mM stocks made in DMSO (Sigma Cat no. D2650). Each concentration of compound was tested in triplicate with DMSO concentration not exceeding a final percentage of 0.3 in the cells. After 72 hours of incubation in CO2 incubator, XTT (Invitrogen, Cat. no X6493) was added to the wells. XTT was dissolved in serum free media at 1 mg/ml and absorbance readings were taken in spectrophotometer at 465 nm. The data was analysed using graph pad prism software. Positive control (100% survival)=Cells in complete media with 0.3% DMSO; Negative control/blank (0% survival)=Media alone containing 0.3% DMSO.
as §1

SMILES: C=CS(=O)(=O)N[C@H]1CC[C@@H](NC(=O)NC(C)C#Cc2ccc(Cl)c(Cl)c2)CC1 (mixture of isomers) [Example 50, N-((1s, 4s)-4-(3-(4-(3,4-dichlorophenyl)but-3-yn-2-yl)ureido)cyclohexyl) ethenesulfonamide]
- viability at 30 µM [1]: 1%
- inhibition at 1 µM ([2]; at 1 μM): 32%
- inhibition at 10 µM ([2]; at 10 μM): 48%
- IC50 ([3]; 72 hours incubation): < 10 µM
- viability at 30 µM ([3]; at 30 μM, 72 hours): 17%
